According to paper PMC7181201, “Dual P-Glycoprotein and CA XII Inhibitors: A New Strategy to Reverse the P-gp Mediated Multidrug Resistance (MDR) in Cancer Cells” (Molecules, 2020):
Values joined by “and” are separate entries in the source; they are usually repeats but may differ in a detail not shown here. Equal values may be shown once.

How the values were obtained:
hCA II = target: T1, hCA II (Homo sapiens, UniProt P00918); experiment: Stopped-flow CO2 hydrase assay, hCA II; assay type: biochemical; conditions: for Ki: stopped flow, mean from 3 assays
T1 construct: made in house
Method: (§1) An SX.18MV-R Applied Photophysics (Oxford, UK) stopped-flow instrument was used to assay the catalytic/inhibition of various CA isozymes. […] Saturated CO2 solutions in water at 25 °C were used as a substrate. Stock solutions of inhibitors were prepared at a concentration of 10 μM (in DMSO-water 1:1, v/v) and dilutions up to 0.01 nM done with the assay buffer mentioned above. […] Inhibitor and enzyme solutions were preincubated together for 10 min at room temperature prior to the assay, in order to allow for the formation of the E–I complex. […] The inhibition constants were obtained by non-linear least-squares methods using the Cheng–Prusoff equation, as reported earlier, and represent the mean from at least three different determinations. All CA isozymes used here were recombinant proteins obtained as reported earlier by our group.

hCA IX = target: T2, hCA IX (Homo sapiens, UniProt Q16790); experiment: Stopped-flow CO2 hydrase assay, hCA IX; assay type: biochemical; conditions: for Ki: stopped flow, mean from 3 assays
T2 construct: made in house
Method: as §1

LoVo/DOX cells [1] = experiment: Enhancement of doxorubicin cytotoxicity on LoVo/DOX cells (MTT); assay type: cell-based, human; conditions: 72 h
Method: (§2) To evaluate the enhancement of doxorubicin toxicity in the presence of the tested compounds, the cells, in exponential growth phase, were seeded at 10^4 cells/well and solutions of either compounds or doxorubicin, or a solution of doxorubicin in combination with the compounds, were added to the wells repeated in quadruplicate. […] The MTT working solution was then added and plates were further incubated for 3 h. Following incubation cells and formazan crystals were inspected microscopically. The supernatant was then carefully removed by slow aspiration and the formazan crystals were dissolved in […] of acidified isopropanol solution. The absorbance of the solution was then read on an automated plate reader at a wavelength of 570 nm. The increase in the toxicity of doxorubicin was quantified by the ratio between the growth of the cell sample treated with IC20 of doxorubicin and that of the cell sample treated with IC20 of doxorubicin in combination with the various concentrations of the tested compounds.

hCA I = target: T3, hCA I (Homo sapiens, UniProt P00915); experiment: Stopped-flow CO2 hydrase assay, hCA I; assay type: biochemical; conditions: mean from 3 assays
T3 construct: made in house
Method: as §1

K562/DOX cells [2] = experiment: Enhancement of doxorubicin cytotoxicity on K562/DOX cells (MTT); assay type: cell-based, human; conditions: 72 h
Method: as §2

hCA XII = target: T4, hCA XII (Homo sapiens, UniProt O43570); experiment: Stopped-flow CO2 hydrase assay, hCA XII; assay type: biochemical; conditions: stopped flow, mean from 3 assays
T4 construct: made in house
Method: as §1

P-gp [3] = target: T5, P-gp (Homo sapiens, UniProt P08183); experiment: Rhodamine-123 uptake test on LoVo/DOX cells (flow cytometry); assay type: cell-based
T5 construct: doxorubicin resistant K562/DOX cell line overexpresses almost exclusively the transporter membrane protein P-gp; endogenous in cells; host or cells: K562/DOX (doxorubicin-selected human erythroleukemia cells)
Method: The selected compounds were preliminary studied at 3, 10 and 30 µM concentrations by the MTT (3-(4,5-dimethylthiazolyl-2)-2,5-diphenyltetrazolium bromide) assay to evaluate their intrinsic cytotoxicity on LoVo/DOX cell line.
(§3) An aliquot of cells (control) was incubated with the fluorochrome in the absence of inhibitors.
(§4) At the end of the uptake, cells were sedimented, washed twice in ice-cold PBS, placed in PBS on ice, and kept in the dark until flow cytometric analysis.
(§5) The histograms were generated by program GraphPad Prism 5 (GraphPad Prism software, Inc., San Diego, CA, USA); the data were obtained from the ratio between the average fluorescence intensity of the samples preincubated with the compounds under study and subsequently exposed to rhodamine, and the fluorescence of the sample exposed only to the rhodamine.

P-gp [4] = target: T5, P-gp; experiment: Rhodamine-123 uptake test on K562/DOX cells (flow cytometry); assay type: cell-based
Method: The results were expressed as the FR (fluorescence ratio), which is the ratio between the average fluorescence intensity of rhodamine in the presence and in the absence of modulators. Value 1 was attributed to the average fluorescence intensity of the samples exposed only to rhodamine.
as §3, §4, §5

LoVo cells = experiment: Doxorubicin IC50 on parental LoVo cells (MTT); conditions: Homo sapiens, 72 h, read-out: doxorubicin IC50
Method: (§6) For the LoVo/DOX cell line, the doxorubicin growth inhibition was determined by the MTT assay and the IC50 and IC20 values were determined. Approximately 10^4 cells/well were plated onto 96-well plates and allowed to attach for 24 h before treatment with a range of drug concentrations from 3 × 10^−11 to 3 × 10^−5 M for 3 days; each concentration was repeated four times. At the end of the incubation the cells were processed according to the MTT protocol [43] and the optical density of the chromogenic product was measured at 570 nm. IC50 and IC20 values were determined graphically from relative survival curves obtained by GraphPad Prism 5 software (GraphPad, San Diego, CA, USA).
(§7) The resistance index to doxorubicin of the two resistant cell lines was obtained from the ratio between the doxorubicin IC50 (µM) values on the resistant and parental lines.

LoVo/DOX cells [5] = experiment: Doxorubicin IC50 and IC20 evaluation on LoVo/DOX cells (MTT)
Method: as §6, §7

K562/DOX cells [6] = system: K562/DOX cells; design: method as in PMID 30947123; conditions: cited from earlier work
[7] = doxorubicin 0.3 µM (IC20) + compound 3 µM
[8] = doxorubicin 0.3 µM (IC20) + compound 10 µM
[9] = doxorubicin 0.5 µM (IC20) + compound 3 µM
[10] = doxorubicin 0.5 µM (IC20) + compound 10 µM

T5 sequence (P08183 whole entry): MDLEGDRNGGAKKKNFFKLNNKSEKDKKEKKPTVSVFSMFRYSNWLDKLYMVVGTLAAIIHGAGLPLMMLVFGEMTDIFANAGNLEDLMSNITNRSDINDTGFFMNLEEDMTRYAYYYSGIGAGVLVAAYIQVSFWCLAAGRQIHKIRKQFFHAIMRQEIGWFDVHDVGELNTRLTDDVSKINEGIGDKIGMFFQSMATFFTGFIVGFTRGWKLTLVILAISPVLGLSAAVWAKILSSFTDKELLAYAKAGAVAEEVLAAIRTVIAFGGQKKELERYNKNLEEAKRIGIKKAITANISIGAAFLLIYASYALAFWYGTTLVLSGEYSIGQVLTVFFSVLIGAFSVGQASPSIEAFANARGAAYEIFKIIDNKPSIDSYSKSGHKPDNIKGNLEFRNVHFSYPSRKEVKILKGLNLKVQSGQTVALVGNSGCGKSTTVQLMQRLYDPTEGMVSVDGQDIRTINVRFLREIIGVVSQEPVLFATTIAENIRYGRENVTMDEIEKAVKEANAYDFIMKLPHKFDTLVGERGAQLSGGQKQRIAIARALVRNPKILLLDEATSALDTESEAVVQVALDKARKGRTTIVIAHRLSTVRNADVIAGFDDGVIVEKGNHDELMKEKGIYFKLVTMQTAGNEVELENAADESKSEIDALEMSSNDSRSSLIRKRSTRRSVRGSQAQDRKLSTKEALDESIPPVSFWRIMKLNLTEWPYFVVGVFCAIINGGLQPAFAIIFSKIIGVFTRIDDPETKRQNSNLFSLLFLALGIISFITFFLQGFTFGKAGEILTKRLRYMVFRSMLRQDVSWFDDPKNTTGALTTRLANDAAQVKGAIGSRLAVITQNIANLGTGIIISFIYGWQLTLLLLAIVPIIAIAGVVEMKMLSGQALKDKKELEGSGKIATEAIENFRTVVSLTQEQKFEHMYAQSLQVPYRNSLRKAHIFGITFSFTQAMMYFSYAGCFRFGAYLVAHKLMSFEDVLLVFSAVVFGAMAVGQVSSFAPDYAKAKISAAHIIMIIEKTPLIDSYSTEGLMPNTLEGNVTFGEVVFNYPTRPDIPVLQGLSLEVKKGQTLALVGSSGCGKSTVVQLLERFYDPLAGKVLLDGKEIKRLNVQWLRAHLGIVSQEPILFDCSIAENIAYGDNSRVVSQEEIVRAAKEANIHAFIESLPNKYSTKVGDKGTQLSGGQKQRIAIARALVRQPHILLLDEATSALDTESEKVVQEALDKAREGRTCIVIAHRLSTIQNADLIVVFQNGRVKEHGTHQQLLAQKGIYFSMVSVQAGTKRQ
T3 sequence (P00915 whole entry): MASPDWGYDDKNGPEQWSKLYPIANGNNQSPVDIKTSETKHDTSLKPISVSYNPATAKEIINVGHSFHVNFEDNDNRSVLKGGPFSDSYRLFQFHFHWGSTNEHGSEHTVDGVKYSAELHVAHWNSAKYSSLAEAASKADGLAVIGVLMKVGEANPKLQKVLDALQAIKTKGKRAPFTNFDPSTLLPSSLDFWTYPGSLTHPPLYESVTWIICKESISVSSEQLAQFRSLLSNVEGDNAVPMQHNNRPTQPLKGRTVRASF
T4 sequence (O43570 25-354): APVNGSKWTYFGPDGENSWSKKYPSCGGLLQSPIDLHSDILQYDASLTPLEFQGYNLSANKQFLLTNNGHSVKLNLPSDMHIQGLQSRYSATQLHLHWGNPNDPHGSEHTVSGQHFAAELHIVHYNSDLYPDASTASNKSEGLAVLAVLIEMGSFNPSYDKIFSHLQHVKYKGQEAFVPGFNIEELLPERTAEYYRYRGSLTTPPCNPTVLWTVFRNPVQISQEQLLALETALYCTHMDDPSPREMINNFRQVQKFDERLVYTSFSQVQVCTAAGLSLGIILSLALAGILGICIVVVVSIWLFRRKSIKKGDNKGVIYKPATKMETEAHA

| SMILES | Ki (hCA II) [nM] | Ki (hCA IX) [nM] | Ki (hCA I) [nM] | Ki (hCA XII) [nM] | FR (fluorescence ratio, Rhd 123 uptake with/without modulator) (P-gp [4]; compound 3 µM) | FR (fluorescence ratio, Rhd 123 uptake with/without modulator) (P-gp [4]; compound 30 µM) | Cell Growth (%) (LoVo/DOX cells [1]; [7]) | Cell Growth (%) (LoVo/DOX cells [1]; [8]) | Cell Growth (%) (K562/DOX cells [2]; [9]) | Cell Growth (%) (K562/DOX cells [2]; [10]) | FR (fluorescence ratio, Rhd 123 uptake) (P-gp [3]; compound 10 µM) | other results |
| --- | --- | --- | --- | --- | --- | --- | --- | --- | --- | --- | --- | --- |
| COc1cc(/C=C/C(=O)OCCCN(C)CCCCCOC(=O)COc2ccc3ccc(=O)oc3c2)cc(OC)c1OC [Compound 2, (E)-3-(methyl(5-(2-((2-oxo-2H-chromen-7-yl)oxy)acetoxy)pentyl)amino)propyl 3-(3,4,5-trimethoxyphenyl)acrylate] | > 10000 | 47.4 | > 10000 | 8.9 | 1.57 | 5.81 | 82.7 ± 10.2% | 41.5% and 41.5 ± 7.3% | 85.6 ± 4.7% | 65.0 ± 5.2 | 10.50 | – |
| COc1cc(/C=C/C(=O)OCCCCCCN(C)CCCOC(=O)COc2ccc3ccc(=O)oc3c2)cc(OC)c1OC [Compound 5, (E)-6-(methyl(3-(2-((2-oxo-2H-chromen-7-yl)oxy)acetoxy)propyl)amino)hexyl 3-(3,4,5-trimethoxyphenyl)acrylate] | > 10000 | 26.7 | > 10000 | 6.4 | 3.67 | 5.85 | 58.0% and 58.0 ± 2.4% | 51.0% and 51.0 ± 1.9% | 51.7% and 51.7 ± 3.0% | – | 6.30 | – |
| COc1cc(/C=C/C(=O)OCCCCCCCN(C)CCOC(=O)COc2ccc3ccc(=O)oc3c2)cc(OC)c1OC [Compound 7, (E)-7-(methyl(2-(2-((2-oxo-2H-chromen-7-yl)oxy)acetoxy)ethyl)amino)heptyl 3-(3,4,5-trimethoxyphenyl)acrylate] | > 10000 | 29.7 | > 10000 | 9.1 | 2.08 | 4.48 | 61.0% and 61.0 ± 3.3% | 34.9% and 34.9 ± 8.1% | 78.1 ± 4.9% | – | 12.60 | – |
| COc1cc(/C=C/C(=O)OCCCCCCCN(C)CCCCCCCOC(=O)COc2ccc3ccc(=O)oc3c2)cc(OC)c1OC [Compound 8, (E)-7-(methyl(7-(2-((2-oxo-2H-chromen-7-yl)oxy)acetoxy)heptyl)amino)heptyl 3-(3,4,5-trimethoxyphenyl)acrylate] | > 10000 | 24.2 | > 10000 | 7.1 | 2.33 | 4.15 | 68.0% and 68.0 ± 2.9% | 32.2% and 32.2 ± 10.7% | 82.0 ± 5.9% | – | 9.90 | – |
| CN(CCCCCCCOC(=O)c1c2ccccc2cc2ccccc12)CCOC(=O)c1ccc(S(N)(=O)=O)cc1 [Compound 28, 7-(methyl(2-((4-sulfamoylbenzoyl)oxy)ethyl)amino)heptyl anthracene-9-carboxylate] | 475 | 20.6 | 238 | 23.5 | 1.45 | 4.25 | – | – | – | – | – | – |
| COc1ccc(CCN(C)CCCC(C#N)(c2ccc(OC)c(OC)c2)C(C)C)cc1OC (centres unmarked) [Ver, verapamil, reference compound] | – | – | – | – | – | – | 54.0 ± 0.06% | 51.0 ± 0.09% | 69.0 ± 0.03% | 62.0 ± 0.1 | – | Cell Growth (%) (LoVo/DOX cells [1]; doxorubicin 0.3 µM (IC20) + compound 10 µM, listed as verapamil): 51.0% |
| COc1cccc2c1C(=O)c1c(O)c3c(c(O)c1C2=O)C[C@@](O)(C(=O)CO)C[C@@H]3O[C@H]1C[C@H](N)[C@H](O)[C@H](C)O1 [doxo, doxorubicin] | – | – | – | – | – | – | – | – | – | – | – | activity at 0.3 µM (LoVo/DOX cells [1]; Homo sapiens, doxorubicin 0.3 µM alone, read-out: Cell Growth (%)): 80 ± 2.5%; activity at 0.5 µM (K562/DOX cells [2]; Homo sapiens, doxorubicin 0.5 µM alone, read-out: Cell Growth (%)): 80 ± 3.6%; IC50 (LoVo cells): 63 ± 6.6 nM; IC50 (LoVo/DOX cells [5]; Homo sapiens, LoVo, 72 h, read-out: doxorubicin IC50): 850 ± 84 nM; IC20 (LoVo/DOX cells [5]; Homo sapiens, LoVo, read-out: doxorubicin IC20): 300 nM; resistance index to doxorubicin (IC50 resistant/parental) (LoVo/DOX cells [5]; LoVo/DOX vs LoVo): 13.5; IC50 (K562/DOX cells [6]; K562/DOX cells ref 38, read-out: doxorubicin IC50): 2470 ± 250 nM; IC20 (K562/DOX cells [6]; K562/DOX cells, extrapolated from earlier cytotoxicity curves ref 38, read-out: doxorubicin IC20): 500 nM; resistance index to doxorubicin (IC50 resistant/parental) (K562/DOX cells [6]; K562/DOX vs K562 ref 38): 73 |

Continued, in another order:

| Ki (hCA II) [nM] | Ki (hCA IX) [nM] | Ki (hCA I) [nM] | Ki (hCA XII) [nM] | FR (fluorescence ratio, Rhd 123 uptake with/without modulator) (P-gp [4]; compound 3 µM) | FR (fluorescence ratio, Rhd 123 uptake with/without modulator) (P-gp [4]; compound 30 µM) | SMILES | Cell Growth (%) (LoVo/DOX cells [1]; [7]) | Cell Growth (%) (LoVo/DOX cells [1]; [8]) | Cell Growth (%) (K562/DOX cells [2]; [9]) | Cell Growth (%) (K562/DOX cells [2]; [10]) | FR (fluorescence ratio, Rhd 123 uptake) (P-gp [3]; compound 10 µM) | other results |
| --- | --- | --- | --- | --- | --- | --- | --- | --- | --- | --- | --- | --- |
| 48.9 | 68.4 | 533 | 35.2 | 1.30 | 3.70 | COc1cc(/C=C/C(=O)OCCCCCCCN(C)CCOC(=O)c2ccc(S(N)(=O)=O)cc2)cc(OC)c1OC [Compound 21, (E)-2-(methyl(7-((3-(3,4,5-trimethoxyphenyl)acryloyl)oxy)heptyl)amino)ethyl 4-sulfamoyl benzoate] | 82.0 ± 2.7% | 59.0 ± 3.3% | 78.8 ± 10.2% | 68.7 ± 3.6 | – | FR (fluorescence ratio, Rhd 123 uptake) (P-gp [3]; compound 3 µM): negligible |
| 8.9 | 25.3 | 83.5 | 57.6 | 1.42 | 2.88 | COc1cc(C(=O)OCCCCCCN(C)CCCOC(=O)c2ccc(S(N)(=O)=O)cc2)cc(OC)c1OC [Compound 24, 6-(methyl(3-((4-sulfamoylbenzoyl)oxy)propyl)amino)hexyl 3,4,5-trimethoxybenzoate] | – | – | – | – | – | hCA II vs. hCA XII preference (hCA II; ratio of Ki values): 6.5 times; more potent on hCA IX than on hCA XII (hCA IX; ratio of Ki values): twice |
| 90.2 | 117 | 42.7 | 8 | 1.44 | 3.50 | COc1cc(C(=O)OCCCCCCCN(C)CCOC(=O)c2ccc(S(N)(=O)=O)cc2)cc(OC)c1OC [Compound 25, 7-(methyl(2-((4-sulfamoylbenzoyl)oxy)ethyl)amino)heptyl 3,4,5-trimethoxybenzoate] | 81.7 ± 2.0% | – | 80.3 ± 5.9% | 76.0 ± 3.7 | – | FR (fluorescence ratio, Rhd 123 uptake) (P-gp [3]; compound 3 µM): negligible |
| 81.2 | 241 | 339 | 23.4 | 2.10 | 4.45 | CN(CCCCCOC(=O)c1ccc(S(N)(=O)=O)cc1)CCCOC(=O)c1c2ccccc2cc2ccccc12 [Compound 26, 3-(methyl(5-((4-sulfamoylbenzoyl)oxy)pentyl)amino)propyl anthracene-9-carboxylate] | 82.0 ± 2.0% | 58.2 ± 5.9% | 77.9 ± 6.1% | 74.0 ± 2.6 | – | FR (fluorescence ratio, Rhd 123 uptake) (P-gp [3]; compound 3 µM): negligible |
| 422 | 28.2 | 617 | 31.3 | 1.08 | 2.03 | CN(CCCCCCOC(=O)c1c2ccccc2cc2ccccc12)CCCOC(=O)c1ccc(S(N)(=O)=O)cc1 [Compound 27, 6-(methyl(3-((4-sulfamoylbenzoyl)oxy)propyl)amino)hexyl anthracene-9-carboxylate] | – | – | – | – | – | – |
